Experimental data from US10471043B2, “Compounds and methods of treating bacterial infections” (ULTUPHARMA AB, priority 2015, dated 2019).
Read-outs that look alike come from different tables or passages of the source.

Legend:
S. pyogenes = assay: Antimicrobial Susceptibility Test by Broth Microdilution, M07-A9 CLSI; format: cell-based; conditions: Streptococcus pyogenes
E. coli = assay: MIC panel of Gram-negative bacteria (Table 7); format: cell-based; conditions: Escherichia coli
Micrococcus luteus = assay: MIC panel of Gram-negative bacteria (Table 7); format: cell-based; conditions: EN0455 Micrococcus luteus G+ PKL 3693
P. aeruginosa = assay: MIC panel of Gram-negative bacteria (Table 7); format: cell-based; conditions: Pseudomonas aeruginosa
M. frederiksbergense = assay: MIC by broth micro-dilution; format: cell-based; conditions: Table 4; read-out: MIC (μg/ml) M. frederiksbergense
Experimental: (§1) At first (Table 1), MIC is determined by broth micro-dilution method. The test medium is Antibiotic Medium 3 (AM3; Difco Ltd) mixed with Phosphate Buffered Saline (PBS) in proportions 1:1. Selected MIC values are verified using cation-adjusted Mueller Hinton Broth (MHB; BD). Cell concentration of tested pathogen is adjusted to between 3 and 5×10^5 cells per ml. To verify cell concentration of tested pathogen, viable cell counts are performed directly after each MIC-test by dilution method with PBS as a dilution solvent. Cells are counted on the agar plates with 50% strength Vegetable Peptone Broth (50% VPB; Oxoid Ltd) after 16 to 20 h of incubation at 37° C.
(§2) Cells of pathogen suspended in test medium are distributed to the wells and the plates are incubated for 16 to 20 h at 37° C. Negative controls are wells with the test medium only and positive controls are wells with the pathogen in test medium. The MIC is defined as the lowest concentration of each compound with no visible growth of pathogen.

A. baumannii = assay: MIC by broth micro-dilution; format: cell-based; conditions: A. baumannii (G−), Table 2
Experimental: as §1, §2

Bacillus cereus = assay: MIC by broth micro-dilution; format: cell-based; conditions: Table 4, read-out: MIC (μg/ml) B. cereus
Experimental: as §1, §2

E. faecalis = assay: Antimicrobial Susceptibility Test by Broth Microdilution, M07-A9 CLSI; format: cell-based; conditions: Enterococcus faecalis
Serratia marescens = assay: MIC panel of Gram-negative bacteria (Table 7); format: cell-based; conditions: EN0454 Serratia marescens G− PKL 3692
in vitro [1] = conditions: human, Caco-2
S. epidermidis [2] = assay: Antimicrobial Susceptibility Test by Broth Microdilution, M07-A9 CLSI; format: cell-based; conditions: Staphylococcus epidermidis
Enterobacter aerogenes = assay: MIC panel of Gram-negative bacteria (Table 7); format: cell-based; conditions: Klebsiella aerogenes; EN0461 Enterobacter aerogenes G− PKL 3706
in vitro [3] = conditions: human, CC50 (μg/mL)
K. pneumoniae = assay: MIC panel of Gram-negative bacteria (Table 7); format: cell-based; conditions: Klebsiella pneumoniae
A. baumanii = assay: MIC panel of Gram-negative bacteria (Table 7); format: cell-based
Proteus mirabilis = assay: MIC panel of Gram-negative bacteria (Table 7); format: cell-based
[4] = tested on: Staphylococcus aureus strain LMG15975; assay: MIC by broth micro-dilution, AM3/PBS 1:1; format: cell-based
Experimental: as §1, §2
Example compounds of formula I were examined for antibacterial activity against the Gram-positive bacterium Staphylococcus aureus strain LMG15975 using the above described method (Table 1).

S. epidermidis [5] = assay: MIC panel of Gram-negative bacteria (Table 7); format: cell-based; conditions: Staphylococcus epidermidis; EN0456 S. epidermidis G+ PKL 3694
E. faecium = assay: Antimicrobial Susceptibility Test by Broth Microdilution, M07-A9 CLSI; format: cell-based
HepG2 cells = conditions: human, 48 h
S. typhimurium = assay: MIC panel of Gram-negative bacteria (Table 7); format: cell-based; conditions: Salmonella enterica; EN0466 S. typhimurium G− TH6509
S. pneumoniae = assay: Antimicrobial Susceptibility Test by Broth Microdilution, M07-A9 CLSI; format: cell-based; conditions: Streptococcus pneumoniae
[6] = tested on: mupirocin-resistant strains of Staphylococcus aureus; assay: MIC against mupirocin-resistant strains; format: cell-based; conditions: Staphylococcus aureus; S. aureus V55, mupirocin-resistant; read-out: MIC
Experimental: as §1, §2

CCCCCCCCCC1CC(O)=C(C(=O)CCC)C(=O)O1 (centres unmarked) [Ex. 1, 3-Butyryl-6-nonyl-4-hydroxy-5,6-dihydro-2H-pyran-2-one]
16 to 24 µg/mL: MIC (A. baumannii; Acinetobacter baumannii, read-out: MIC (μg/ml) A. baumannii)
0.8 µg/mL: MIC ([4]; LMG15975, S. aureus (G+), Table 2, read-out: MIC (μg/ml) S. aureus) | MIC ([4]; LMG15975, S. aureus LMG 15975 (SLU), Methicillin-resistant, Table 5, read-out: MIC (μg/mL)) | MIC ([4]; LMG15975, S. aureus LMG15975, Table 1, read-out: MIC (μg/ml)) | MIC ([4]; LMG15975, Table 4, read-out: MIC (μg/ml) S. aureus)
8 µg/mL: MIC (S. pyogenes; S. pyogenes 2 Finland, Macrolide-resistant (M)) | MIC (S. pyogenes; S. pyogenes 29A-TF, Macrolide- sensitive) | MIC (S. pyogenes; S. pyogenes 21 Finland, Macrolide-resistant (MLSc)) | MIC (K. pneumoniae; EN0011 K. pneumoniae Efflux mut, ENABLE L2C MIC panel) | MIC (S. pneumoniae; BAA1407, S. pneumoniae BAA1407, Macrolide-resistant (M + MLS)) | MIC (S. pneumoniae; S. pneumoniae 19A-TN, Quinolone-sensitive) | MIC (S. pneumoniae; S. pneumoniae SP030, Macrolide- sensitive) | MIC (S. pneumoniae; S. pneumoniae TE 122-024, Quinolone-resistant)
2.5 µM: MIC ([4]; LMG15975, S. aureus LMG15975, Table 1, read-out: MIC)
> 64 µg/mL: MIC (E. coli; EN001 E. coli WT, ENABLE Primary MIC panel) | MIC (E. coli; EN003 E. coli D22 (lps mut), ENABLE Primary MIC panel) | MIC (E. coli; EN0012 E. coli, ENABLE L2C MIC panel) | MIC (E. coli; EN0458 E. coli B G− PKL 3698) | MIC (P. aeruginosa; EN004 P. aeruginosa WT, ENABLE Primary MIC panel) | MIC (P. aeruginosa; EN0014 P. aeruginosa, ENABLE L2C MIC panel) | MIC (P. aeruginosa; EN0015 P. aeruginosa Efflux mut, ENABLE L2C MIC panel) | MIC (P. aeruginosa; EN0422 P. aeruginosa G−) | MIC (P. aeruginosa; EN0459 P. aeruginosa G− PKL 3699) | MIC (P. aeruginosa; EN0460 P. aeruginosa G− PKL 3704) | MIC (Serratia marescens) | MIC (Enterobacter aerogenes) | MIC (K. pneumoniae; EN006 K. pneumoniae WT, ENABLE Primary MIC panel) | MIC (K. pneumoniae; EN0010 K. pneumoniae, ENABLE L2C MIC panel (isogenic efflux pairs)) | MIC (A. baumanii; Acinetobacter baumannii, EN007 A. baumanii WT, ENABLE Primary MIC panel, read-out: MIC) | MIC (Proteus mirabilis; EN0457 Proteus mirabilis G− PKL 3695, read-out: MIC) | MIC (S. typhimurium)
8 to 16 µg/mL: MIC (μg/ml) A. baumannii (A. baumannii)
≤ 0.5 µg/mL: MIC (M. frederiksbergense)
33 µM: CC50 at 48 h (in vitro [3])
4 µg/mL: MIC (E. coli; EN002 E. coli DtolC, ENABLE Primary MIC panel) | MIC (S. pneumoniae; ATCC49619, S. pneumoniae ATCC 49619, QC strain) | MIC (S. pneumoniae; S. pneumoniae 158bg, Macrolide-resistant (M)) | MIC (S. pneumoniae; S. pneumoniae 956, Macrolide-resistant (MLSc)) | MIC (S. pneumoniae; S. pneumoniae TE 122-026, Tetracycline-resistant)
≤ 1 µg/mL: MIC (Bacillus cereus)
38 µM: CC50 (HepG2 cells)
2 µg/mL: MIC (P. aeruginosa; EN005 P. aeruginosa Efflux mut, ENABLE Primary MIC panel) | MIC (E. faecalis; E. faecalis E.cocco 12, Vancomycin -resistant) | MIC (E. faecalis; E. faecalis E.cocco 24, Vancomycin -sensitive, Table 6) | MIC (E. faecalis; E. faecalis 24, Vancomycin-sensitive, Table 5) | MIC (S. epidermidis [2]; MRSE, S. epidermidis TA12, MRSE, Table 6) | MIC (S. epidermidis [2]; S. epidermis TA12, Methicillin-resistant, Table 5) | MIC (E. faecium; E. faecium E.coc 7, Vancomycin -resistant, Table 6) | MIC (E. faecium; Enterococcus faecium, E. faecium 7, Vancomycin-resistant, Table 5, read-out: MIC)
53 ×10⁻⁶ cm/s: Papp at 120 min, 10 μM (in vitro [1])
0.5 µg/mL: MIC (E. coli; EN0013 E. coli Del-tolC, ENABLE L2C MIC panel) | MIC (Micrococcus luteus)
≤ 0.1 µg/mL: MIC [6]
1 µg/mL: MIC (S. epidermidis [2]; S. epidermidis RO7, MSSE, Table 6) | MIC (S. epidermidis [2]; S. epidermis RO7, Methicillin-sensitive, Table 5) | MIC (S. epidermidis [5])
>64 µg/mL: MIC (A. baumanii; EN0016 A. baumanii, ENABLE L2C MIC panel) | MIC (A. baumanii; EN0017 A. baumanii Efflux mut, ENABLE L2C MIC panel) | MIC (Proteus mirabilis; EN0445 P. mirabilis ST19 G−)
